Measurements published in patent publication US20120171123A1, “USES AND COMPOSITIONS FOR TREATMENT OF RHEUMATOID ARTHRITIS” (priority 2006, published 2012).
Marks after values point to notes of the source that are not given here.

Test system: patients with severe, active RA
Experiment: Study 2 / Study 3 OLE (adalimumab monotherapy): FACIT-F fatigue
Assay type: in vivo, human
Protocol: In addition to the SF-36 instrument, the Health Utilities Index Mark 3 (HUI3) and the Functional Assessment of Chronic Illness Therapy-Fatigue (FACIT-F) questionnaires were administered at baseline, 12 weeks, and the end of the study.
The HUI3 scale is 0-1, with “1” denoting perfect health and “0” denoting death. FACIT-F scores range from 0-52, with higher scores representing less fatigue. The SF-36 includes one multi-item scale that assesses eight different dimensions of health, including physical and psychosocial components. For each dimension a value of 0-100 is given, with higher numbers representing less impairment. Changes in HUI3 of ≧0.03, in FACIT-F of ≧4 and in SF-36 of ≧4.4 (physical subscales) and ≧3.1 (mental subscales) are considered clinically meaningful.
All patients studied had severe, active RA. Patients' fatigue was measured by the FACIT-F, which is validated for RA.
FACIT-F was administered at baseline, at 1 or 2 time points during the study, and at the end of the study. The questionnaire asked each patient the following “Below is a list of statements that other people with your illness have said are important. By circling one (1) number per line, please indicate how true each statement has been for you during the past 7 days.” The questions in the questionnaire used to determine the FACIT score included the following, where each patient indicated the appropriate number (0-4): I feel fatigued; I feel weak all over; I feel listless (“washed out”); I feel tired; I have trouble starting things because I am tired; I have trouble finishing things because I am tired; I have energy; I am able to do my usual activities; I need to sleep during the day; I am too tired to eat; I need help doing my usual activities; I am frustrated by being too tired to do the things I want to do; I have to limit my social activity because I am tired. FACIT-F scores range from 0-52, with higher scores representing less fatigue. FACIT-F changes of ≧4 are considered clinically meaningful.
Data were obtained from a health economics companion study to a pivotal trial of adalimumab, which rolled over into a long-term, open-label extension (OLE) study. […] Patients' fatigue was measured by the FACIT-F questionnaire. FACIT-F was administered at baseline, and at several time points during the study. FACIT-F scores range from 0-52, with higher scores representing less fatigue. Changes in FACIT-F scores of ≧4 were considered clinically meaningful.
In addition to clinical parameters, the SF-36 instrument, the Health Utilities Index Mark 3 (HUI3), and the Functional Assessment of Chronic Illness Therapy-Fatigue (FACIT-F) questionnaires were administered at baseline, and at weeks 12, 26, 50, 74, 98, 122, 146 and 170, respectively. The HUI3 scale ranges from 0-1, with “1” denoting perfect health and “0” denoting death. FACIT-F scores range from 0-52, with higher scores representing less fatigue. SF-36 scores range from 0-100 with higher scores indicating improvement in HRQoL. Changes in HUI3 scores of ≧0.03, 1 FACIT-F scores of ≧4, 2 and individual SF-36 domain scores of 5-103 are considered clinically meaningful.

adalimumab: human anti-TNF mAb (HUMIRA, Abbott Laboratories), described in U.S. Pat. No. 6,090,382 as D2E7
FACIT-F change from baseline (12 weeks): 7.2
mean FACIT-F change from baseline (week 26 (6 months), monotherapy): 8.5 b, c
mean FACIT-F change from baseline (week 26 (6 months), monotherapy, listed as ada): 8.5
mean FACIT-F change from baseline (week 50): 7.3 ^b
mean FACIT-F change from baseline (week 98): 7.2 ^b
mean FACIT-F change from baseline (week 146): 7.1 ^b
mean FACIT-F change from baseline (week 170): 7.2 ^b
